# Like-named read-outs stand apart in the source and are kept apart here. Positions of bridges follow the written chain, without caps; N, C: chain ends. Non-standard residues stand in square brackets, D forms with d. Residues, ends and D or L forms follow the SMILES beside them. Chains are numbered I, II in the order given. No end group written: not given here. Ahx = NCCCCCC(=O)O
# Legend:
# Assay type in all cases: cell-based
# [1] = system: Staphylococcus aureus ATCC 25923 (sensitive)
# Description: (§1) All microorganisms were purchased from the American Type Culture Collection (ATCC). To determine the antibacterial activity of synthetic peptides against HCAI bacteria, the Staphylococcus aureus strains ATCC 25923 and ATCC 33591 were employed as sensitive and resistant strains, respectively, of a Gram-positive microorganisms species, and Klebsiella pneumoniae ATCC 13883 and ATCC 700603 as sensitive and resistant strains of a Gram-negative species.
# (§2) The antibacterial activity assay for peptides and controls was performed according to the National Committee for Clinical Laboratory Standards method M7-A7 [11]. MIC and MBC values were determined using a broth microdilution and growth inhibition method with some modification. Briefly, MIC assays were performed by liquid inhibition growth assay in an untreated sterile 96-well flat-bottom tissue culture plate. Bacteria were cultured overnight on Mueller-Hinton agar (MHA). Three colonies were transferred to 8 mL of Mueller-Hinton broth (MHB) and incubated at 37°C until the mid-exponential phase of growth. The turbidity of the cultures was measured and adjusted spectrophotometrically to McFarland standard 0.5, then diluted to a final concentration of […]. Synthetic antibacterial peptide candidate stock solutions were diluted to final concentrations per well of 200, 100, 50, 25, 12.5, and 6.25 μM. […]
# (§3) Wells containing MHB with bacterial inoculum only served as bacterial growth controls. Additional controls included MHB alone and MHB with ciprofloxacin (CIP) (2 μg/mL) and bacteria as a positive control. The microplate was incubated for 24 h at 37°C, and growth inhibition was examined by monitoring the optical density at 620 nm (OD620). MIC was defined as the lowest peptide concentration that inhibited bacteria growth >90%.
# [2] = system: Klebsiella pneumoniae ATCC 700603 (resistant)
# Description: as §1
# (§4) To determine the MBC, an aliquot from each well of the MIC assay was spread onto MHA. After 18 h at 37°C, the concentration that inhibited bacterial growth was determined. Each of these tests was performed four times. MBC was defined as the lowest concentration of peptide that reduced the number of bacteria by 99.9% in vitro [12].
# [3] = system: Klebsiella pneumoniae ATCC 13883 (sensitive)
# Description: as §1, §4
# [4] = system: Staphylococcus aureus ATCC 33591 (resistant)
# Description: as §1, §4
# [5] = system: Staphylococcus aureus ATCC 25923 (sensitive); remark: listed apart in the source
# Description: as §1, §4
# [6] = system: Klebsiella pneumoniae ATCC 700603 (resistant); remark: listed apart in the source
# Description: as §1, §2, §3
# [7] = system: Klebsiella pneumoniae ATCC 13883 (sensitive); remark: listed apart in the source
# Description: as §1, §2, §3
# [8] = system: Staphylococcus aureus ATCC 33591 (resistant); remark: listed apart in the source
# Description: as §1, §2, §3
# human erythrocytes = assay: Haemolytic activity; conditions: 6.25-100 μM peptide; human erythrocytes 2% haematocrit in PBS, 2 h 37°C, OD492; n = 2
# Procedure: Human erythrocytes collected from the blood samples of healthy humans were harvested by centrifugation for 7 min at 162 ×g and washed three times in phosphate-buffered saline (PBS). The erythrocytes (2% haematocrit in PBS) were incubated with peptide molecules at several concentrations (6.25, 12.5, 25, 50, and 100 μM), for 2 h at 37°C. PBS was used as a negative control, and sterile distilled water was used as a positive control for haemolysis (100% of haemolysis). The plate was subsequently centrifuged at 1459 ×g for 10 min at 4°C. Aliquots of the supernatants of each well (75 μL) were carefully transferred to a new sterile 96-well plate, and haemolytic activity was evaluated by measuring the OD492 using an Asys Expert Plus Microplate reader. The experiments were performed in duplicate, and peptide haemolysis activity was calculated.
# Lastly, to evaluate the effects of the peptides on normal human erythrocytes, their haemolysis activity was investigated (Figure 6). The percentage of haemolytic activity on human red blood cells after 2 hours was determined via the standard microtitre dilution method. The peptide concentration is reported as μM.
compound,measurement,setting,value
"CSCC[C@H](NC(=O)[C@H](CCCNC(=N)N)NC(=O)[C@H](Cc1c[nH]c2ccccc12)NC(=O)[C@H](CCC(N)=O)NC(=O)[C@H](Cc1c[nH]c2ccccc12)NC(=O)[C@H](CCCNC(=N)N)NC(=O)[C@H](CCCNC(=N)N)NC(=O)[C@H](CS)NC(=O)[C@H](CCCCN)NC(=O)[C@@H](N)Cc1ccccc1)C(=O)N[C@@H](CCCCN)C(=O)N[C@@H](CCCCN)C(=O)N[C@@H](CC(C)C)C(=O)NCC(=O)N[C@@H](C)C(N)=O [LfcinB reference, reference compound]",MIC,"[1]; ATCC 25923, 24 h",> 200 µM
same,MBC,"[2]; ATCC 700603, 18 h",> 200 µM
same,MBC,"[3]; ATCC 13883, 18 h",> 200 µM
same,MBC,"[4]; ATCC 33591, 18 h",100 µM
same,MBC,"[5]; ATCC 25923, 18 h",> 200 µM
"N=C(N)NCCC[C@H](NC(=O)[C@H](Cc1c[nH]c2ccccc12)NC(=O)[C@H](CCC(N)=O)NC(=O)[C@H](Cc1c[nH]c2ccccc12)NC(=O)[C@H](CCCNC(=N)N)NC(=O)[C@@H](N)CCCNC(=N)N)C(=O)NCCCC[C@H](NC(=O)[C@H](CCCNC(=N)N)NC(=O)[C@H](Cc1c[nH]c2ccccc12)NC(=O)[C@H](CCC(N)=O)NC(=O)[C@H](Cc1c[nH]c2ccccc12)NC(=O)[C@H](CCCNC(=N)N)NC(=O)[C@@H](N)CCCNC(=N)N)C(=O)NCCCCCC(=O)N[C@@H](CSSC[C@H](NC(=O)CCCCCNC(=O)[C@H](CCCCNC(=O)[C@H](CCCNC(=N)N)NC(=O)[C@H](Cc1c[nH]c2ccccc12)NC(=O)[C@H](CCC(N)=O)NC(=O)[C@H](Cc1c[nH]c2ccccc12)NC(=O)[C@H](CCCNC(=N)N)NC(=O)[C@@H](N)CCCNC(=N)N)NC(=O)[C@H](CCCNC(=N)N)NC(=O)[C@H](Cc1c[nH]c2ccccc12)NC(=O)[C@H](CCC(N)=O)NC(=O)[C@H](Cc1c[nH]c2ccccc12)NC(=O)[C@H](CCCNC(=N)N)NC(=O)[C@@H](N)CCCNC(=N)N)C(N)=O)C(N)=O [Tetrameric] (I: H-RRWQWRK[Ahx]C-NH2 / II: H-RRWQWRK[Ahx]C-NH2 / III: H-RRWQWR / IV: H-RRWQWR; amide I:7-III:C, II:7-IV:C; disulfide I:9-II:9)",MIC,"[6]; ATCC 700603, 24 h",12.5 µM
same,MIC,"[6]; K. pneumoniae ATCC 700603 resistant, MHB, 24 h 37°C, OD620, >90% inhibition, average of four independent experiments in duplicate",57 µg/mL
same,MIC,"[6]; K. pneumoniae ATCC 700603 resistant, MHB, 24 h 37°C, OD620, >90% inhibition, average of four independent experiments in duplicate, listed as tetrameric",≥ 57 µg/mL
same,MIC,"[6]; K. pneumoniae ATCC 700603 resistant, value in parentheses, MHB, 24 h 37°C, OD620, >90% inhibition","≥ 12,5 µM"
same,MIC,"[7]; ATCC 13883, 24 h",6.25 µM
same,MIC,"[7]; K. pneumoniae ATCC 13883 sensitive, MHB, 24 h 37°C, OD620, >90% inhibition, average of four independent experiments in duplicate",29 µg/mL
same,MIC,"[7]; K. pneumoniae ATCC 13883 sensitive, MHB, 24 h 37°C, OD620, >90% inhibition, average of four independent experiments in duplicate, listed as tetrameric",≥ 29 µg/mL
same,MIC,"[7]; K. pneumoniae ATCC 13883 sensitive, value in parentheses, MHB, 24 h 37°C, OD620, >90% inhibition","≥ 6,25 µM"
same,MIC,"[8]; ATCC 33591, 24 h",12.5 µM
same,MIC,"[8]; S. aureus ATCC 33591 resistant, MHB, 24 h 37°C, OD620, >90% inhibition, average of four independent experiments in duplicate",57 µg/mL
same,MIC,"[8]; S. aureus ATCC 33591 resistant, MHB, 24 h 37°C, OD620, >90% inhibition, average of four independent experiments in duplicate, listed as tetrameric",≥ 57 µg/mL
same,MIC,"[8]; S. aureus ATCC 33591 resistant, value in parentheses, MHB, 24 h 37°C, OD620, >90% inhibition",≥ 12.5 µM
same,MIC,"[1]; ATCC 25923, 24 h",6.25 µM
same,MIC,"[1]; S. aureus ATCC 25923 sensitive, MHB, 24 h 37°C, OD620, lowest concentration inhibiting growth >90%, average of four independent experiments in duplicate",29 µg/mL
same,MIC,"[1]; S. aureus ATCC 25923 sensitive, MHB, 24 h 37°C, OD620, lowest concentration inhibiting growth >90%, average of four independent experiments in duplicate, listed as tetrameric",≥ 29 µg/mL
same,MIC,"[1]; S. aureus ATCC 25923 sensitive, value in parentheses, MHB, 24 h 37°C, OD620, >90% inhibition, average of four independent experiments in duplicate",≥ 6.25 µM
same,concentration at which antibacterial activity was displayed (dose-response profile),"[1]; S. aureus sensitive strain, Figure 2",≥ 29 µg/mL
same,MBC,"[2]; ATCC 700603, 18 h",25 µM
same,MBC,"[2]; K. pneumoniae ATCC 700603 resistant, MHA, 18 h 37°C, 99.9% reduction",115 µg/mL
same,MBC,"[2]; K. pneumoniae ATCC 700603 resistant, MHA, 18 h 37°C, 99.9% reduction, listed as tetrameric",≥ 115 µg/mL
same,MBC,"[2]; K. pneumoniae ATCC 700603 resistant, value in parentheses, MHA, 18 h 37°C, 99.9% reduction",≥ 25 µM
same,MBC as a function of the MBC of the tetrameric peptide,"[2]; K. pneumoniae resistant strain, from concentrations in μg/mL",1 x MBC
same,MBC,"[3]; ATCC 13883, 18 h",25 µM
same,MBC,"[3]; K. pneumoniae ATCC 13883 sensitive, MHA, 18 h 37°C, 99.9% reduction",115 µg/mL
same,MBC,"[3]; K. pneumoniae ATCC 13883 sensitive, MHA, 18 h 37°C, 99.9% reduction, listed as tetrameric",≥ 115 µg/mL
same,MBC,"[3]; K. pneumoniae ATCC 13883 sensitive, value in parentheses, MHA, 18 h 37°C, 99.9% reduction",≥ 25 µM
same,MBC as a function of the MBC of the tetrameric peptide,"[3]; K. pneumoniae sensitive strain, from concentrations in μg/mL",1 x MBC
same,MBC,"[4]; ATCC 33591, 18 h",12.5 µM
same,MBC,"[4]; S. aureus ATCC 33591 resistant, MHA, 18 h 37°C, 99.9% reduction",57 µg/mL
same,MBC,"[4]; S. aureus ATCC 33591 resistant, MHA, 18 h 37°C, 99.9% reduction, listed as tetrameric",≥ 57 µg/mL
same,MBC,"[4]; S. aureus ATCC 33591 resistant, value in parentheses, MHA, 18 h 37°C, 99.9% reduction",≥ 12.5 µM
same,MBC as a function of the MBC of the tetrameric peptide,"[4]; S. aureus resistant strain, from concentrations in μg/mL",1 x MBC
same,MBC,"[5]; ATCC 25923, 18 h",12.5 µM
same,MBC,"[5]; S. aureus ATCC 25923 sensitive, MHA, 18 h 37°C, 99.9% reduction, average of four independent experiments",57 µg/mL
same,MBC,"[5]; S. aureus ATCC 25923 sensitive, MHA, 18 h 37°C, 99.9% reduction, average of four independent experiments, listed as tetrameric",≥ 57 µg/mL
same,MBC,"[5]; S. aureus ATCC 25923 sensitive, value in parentheses, MHA, 18 h 37°C, 99.9% reduction",≥ 12.5 µM
same,MBC as a function of the MBC of the tetrameric peptide,"[5]; S. aureus sensitive strain, from concentrations in μg/mL",1 x MBC
RRWQWR-NH2 [Motif],haemolysis activity over the concentrations tested,human erythrocytes,no haemolysis activity
same,MBC,"[2]; ATCC 700603, 18 h",> 200 µM
same,MBC,"[3]; ATCC 13883, 18 h",> 200 µM
same,MBC,"[5]; ATCC 25923, 18 h",> 200 µM
RWQWRWQWR [Palindromic],MIC,"[6]; ATCC 700603, 24 h",50 µM
same,MIC,"[7]; ATCC 13883, 24 h",50 µM
same,MIC,"[8]; ATCC 33591, 24 h",6.25 µM
same,MIC,"[1]; ATCC 25923, 24 h",50 µM
same,MBC,"[2]; ATCC 700603, 18 h",100 µM
same,MBC,"[3]; ATCC 13883, 18 h",100 µM
same,MBC,"[4]; ATCC 33591, 18 h",50 µM
same,MBC,"[5]; ATCC 25923, 18 h",100 µM

# Reference: publication PMC6015718, “Effect of Polyvalence on the Antibacterial Activity of a Synthetic Peptide Derived from Bovine Lactoferricin against Healthcare-Associated Infectious Pathogens” (BioMed Research International, 2018)
